Experimental data: US10857230B2, “Co-therapy comprising a small molecule CSF-1R inhibitor and an agonistic antibody that specifically binds CD40 for the treatment of cancer” (Janssen Biotech, Inc., priority 2017, dated 2020)

System: CT26 murine colon carcinoma cells
Assay: Mean Tumor Volume Assay, CT26 (Example 3)
Assay type: in vivo, BALB/c mice
Conditions: anti-mCD40 5 mpk, anti-CSF1R 10 mpk i.p. Days 1, 5, 9, 13
Procedure: The assay was run using female BALB/c mice (BALB/c AnNcr1, Charles River).
CT26 murine colon carcinoma cells were grown in RPMI-1640 medium containing 10% fetal bovine serum, 2 mM glutamine, 100 units/mL penicillin G sodium, 100 μg/mL streptomycin sulfate, and 25 μg/mL gentamicin. The cells were cultured in tissue culture flasks in a humidified incubator at 37° C., in an atmosphere of 5% CO2 and 95% air.
The CT26 colon cells used for implantation were harvested during log phase growth and re-suspended in cold phosphate buffered saline (PBS).
Each mouse was injected subcutaneously in the right flank with 1×10^6 tumor cells (0.1 mL cell suspension) and tumors were monitored as their volumes approached the target range of 75 to 125 mm^3. Day 1 of the study, animals with individual tumor volumes ranging from 75 to 125 mm^3 were randomized into six different groups (n=12).
The compound of formula of formula (I), rat IgG2a (Clone 2A3) (5.55 mg/mL), anti-CSF1R (purchased from BioXCell anti-mouse CSF1R (CD115), Clone: AFS98, SKU: BE0213, Lot No. 5248/0814) and anti-mCD40 (purchased from BioXCell, anti-mouse CD40, Clone: FGK45, SKU: 13E0016-2-) were used as test compounds, alone or in combination. The compound of formula (I) was stored at room temperature and antibody stock solutions were stored at 4° C. upon receipt. The compound of formula (I) was dissolved in 0.5% HPMC to yield a 1.0 mg/mL dosing solution. The dosing solution was stored at 4° C., protected from light. The rat IgG2a isotype, anti-CD40 and anti-CSF1R dosing solutions were prepared once at the beginning of study by diluting aliquots of the stock solutions with PBS. The dosing solution was stored at 4° C., protected from light.
On Day 1 of the study, groups of BALB/c mice (n=12/group) began dosing according to the following protocol
The vehicle (0.5% HPMC) and compound of formula (I) were administered orally (p.o.). The rat IgG2a isotype control, anti-mCD40 and anti-CSF1R were administered intraperitoneally (i.p.). Rat IgG2a(2A3), the anti-CSF1R and compound of formula (I) were administered at 10 mg/kg. The anti-mCD40 was administered at 5 mg/kg. The dosing volume for all animals was 10 mL/kg (0.2 mL per 20-g mouse) and was adjusted for body weight.

CC1(C)CC=C(c2nc(C3CC(C)(C)OC(C)(C)C3)ccc2NC(=O)c2nc(C#N)c[nH]2)CC1 [compound of formula (I), 4-cyano-N-(2-(4,4-dimethylcyclohex-1-en-1-yl)-6-(2,2,6,6-tetramethyltetrahydro-2H-pyran-4-yl)pyridin-3-yl)-1H-imidazole-2-carboxamide]
Group Mean Tumor Volume, Day 6 (Day 6, formula (I) 10 mpk b.i.d. × 14 days p.o.): 107.69 mm^3 | % Tumor Growth Inhibition, Day 6 (Day 6, relative to Group 1 control, formula (I) 10 mpk b.i.d. × 14 days p.o.): −0.86% | Group Mean Tumor Volume, Day 8 (Day 8, formula (I) 10 mpk b.i.d. × 14 days p.o.): 130.14 mm^3 | % Tumor Growth Inhibition, Day 8 (Day 8, relative to Group 1 control, formula (I) 10 mpk b.i.d. × 14 days p.o.): −6.79% | Group Mean Tumor Volume, Day 10 (Day 10, formula (I) 10 mpk b.i.d. × 14 days p.o.): 196.09 mm^3 | % Tumor Growth Inhibition, Day 10 (Day 10, relative to Group 1 control, formula (I) 10 mpk b.i.d. × 14 days p.o.): −24.44% | Group Mean Tumor Volume, Day 13 (Day 13, formula (I) 10 mpk b.i.d. × 14 days p.o.): 268.17 mm^3 | % Tumor Growth Inhibition, Day 13 (Day 13, relative to Group 1 control, formula (I) 10 mpk b.i.d. × 14 days p.o.): −1.27% | Group Mean Tumor Volume, Day 15 (Day 15, formula (I) 10 mpk b.i.d. × 14 days p.o.): 392.41 mm^3 | % Tumor Growth Inhibition, Day 15 (Day 15, relative to Group 1 control, formula (I) 10 mpk b.i.d. × 14 days p.o.): 5.39% | Group Mean Tumor Volume, Day 16 (Day 16, formula (I) 10 mpk b.i.d. × 14 days p.o.): 412.91 mm^3 | % Tumor Growth Inhibition, Day 16 (Day 16, relative to Group 1 control, formula (I) 10 mpk b.i.d. × 14 days p.o.): −2.37% | Group Mean Tumor Volume, Day 20 (Day 20, formula (I) 10 mpk b.i.d. × 14 days p.o.): 739.49 mm^3 | % Tumor Growth Inhibition, Day 20 (Day 20, relative to Group 1 control, formula (I) 10 mpk b.i.d. × 14 days p.o.): 16.42%
